{"source": "patent US20110045568A1", "about": "“METHOD FOR RESTORING BMP-RECEPTOR SIGNALING IN A CELL” (FREIE UNIVERSITÄT BERLIN, priority 2008, published 2011)", "molecules": {"B1": {"name": "cGKI: cGMP-dependent protein kinase I (α or β isoform, SEQ ID NO 1 or 2), overexpressed in cells (protein, UniProt Q13976 2-671, looked up)", "cGMP-dependent protein kinase …": "SELEEDFAKILMLKEERIKELEKRLSEKEEEIQELKRKLHKCQSVLPVPSTHIGPRTTRAQGISAEPQTYRSFHDLRQAFRKFTKSERSKDLIKEAILDNDFMKNLELSQIQEIVDCMYPVEYGKDSCIIKEGDVGSLVYVMEDGKVEVTKEGVKLCTMGPGKVFGELAILYNCTRTATVKTLVNVKLWAIDRQCFQTIMMRTGLIKHTEYMEFLKSVPTFQSLPEEILSKLADVLEETHYENGEYIIRQGARGDTFFIISKGTVNVTREDSPSEDPVFLRTLGKGDWFGEKALQGEDVRTANVIAAEAVTCLVIDRDSFKHLIGGLDDVSNKAYEDAEAKAKYEAEAAFFANLKLSDFNIIDTLGVGGFGRVELVQLKSEESKTFAMKILKKRHIVDTRQQEHIRSEKQIMQGAHSDFIVRLYRTFKDSKYLYMLMEACLGGELWTILRDRGSFEDSTTRFYTACVVEAFAYLHSKGIIYRDLKPENLILDHRGYAKLVDFGFAKKIGFGKKTWTFCGTPEYVAPEIILNKGHDISADYWSLGILMYELLTGSPPFSGPDPMKTYNIILRGIDMIEFPKKIAKNAANLIKKLCRDNPSERLGNLKNGVKDIQKHKWFEGFNWEGLRKGTLTPPIIPSVASPTDTSNFDSFPEDNDEPPPDDNSGWDIDF"}, "B2": {"name": "cGKIβ: β isoform of cGMP-dependent protein kinase I, SEQ ID NO 2 (protein, listed as Homo sapiens)", "chain": "MGTLRDLQYALQEKIEELRQRDALIDELELELDQKDELIQKLQNELDKYRSVIRPATQQAQKQSASTLQGEPRTKRQAISAEPTAFDIQDLSHVTLPFYPKSPQSKDLIKEAILDNDFMKNLELSQIQEIVDCMYPVEYGKDSCIIKEGDVGSLVYVMEDGKVEVTKEGVKLCTMGPGKVFGELAILYNCTRTATVKTLVNVKLWAIDRQCFQTIMMRTGLIKHTEYMEFLKSVPTFQSLPEEILSKLADVLEETHYENGEYIIRQGARGDTFFIISKGTVNVTREDSPSEDPVFLRTLGKGDWFGEKALQGEDVRTANVIAAEAVTCLVIDRDSFKHLIGGLDDVSNKAYEDAEAKAKYEAEAAFFANLKLSDFNIIDTLGVGGFGRVELVQLKSEESKTFAMKILKKRHIVDTRQQEHIRSEKQIMQGAHSDFIVRLYRTFKDSKYLYMLMEACLGGELWTILRDRGSFEDSTTRFYTACVVEAFAYLHSKGIIYRDLKPENLILDHRGYAKLVDFGFAKKIGFGKKTWTFCGTPEYVAPEIILNKGHDISADYWSLGILMYELLTGSPPFSGPDPMKTYNIILRGIDMIEFPKKIAKNAANLIKKLCRDNPSERLGNLKNGVKDIQKHKWFEGFNWEGLRKGTLTPPIIPSVASPTDTSNFDSFPEDNDEPPPDDNSGWDIDF"}}, "key": {"[1]": {"tested_on": "Id1 promoter", "experiment": "Chromatin immunoprecipitation (ChIP) at the Id1 promoter in C2C12 cells", "format": "cell-based, mouse", "conditions": "co-stimulation with or stimulation with 8-Br-cGMP alone, 1 μmol/l, 4 hrs", "quoted_text": "Chromatin immunoprecipitation (ChIP) was performed using (A) α-cGKI or α-Smad1 antibody or (B) α-Smad1 followed by α-cGKI antibody and vice versa or (C) α-Smad1 followed by α-TFII-I antibody and vice versa. Subsequent PCR identified a co-precipitated Id1 promoter sequence using specific primers. […] To exclude unspecific outcome control samples were run (for ChIP: no antibody, IgG, α-GFP antibody; for two-step ChIP: α-respective antibody followed by IgG; for unspecific amplification via PCR: no template). […] C2C12 cells were stimulated with BMP-2 for 4 h or left unstimulated. Endogenous chromatin immunoprecipitations (ChIP) of a specific Id1 promoter fragment was performed using α-Smad1 and α-cGKI antibodies (left). Id1 promoter was assayed for cGKI/TFII-I complex formation by one-step and two-step ChIP with the indicated antibodies. (D) Endogenous complexes with cGKI from C2C12 cells were analyzed with α-TFII-I, α-Smad1 and α-Smad4 antibodies and a lysate aliquot was monitored for protein expression. (E) Smad1/TFII-I association was analyzed in 293T cells expressing both proteins. IP was performed using a Smad1 directed antibody and the pellets were examined for co-IP of TFII-I. Lysate control was done by immunoblotting α-Smad1 and α-TFII-I.\nBriefly, C2C12 cells were grown to a confluence of 80-90% (10 cm dish). […] PCR products were separated on 8% PA gels and analyzed under UV light."}, "[2]": {"tested_on": "BMP response element (BRE from Id1 promoter) luciferase reporter", "experiment": "BRE luciferase reporter gene assay in C2C12 cells", "format": "cell-based, mouse", "method": "Luciferase activity was measured and error bars result from the mean of duplicate measurements. […] Expression of cGKIα/β was controlled by immunoblot using α-cGKI antibody. (C) As in (A and B) except that reporters were co-transfected with sh-cGKI, sh-cGKI mix and sh-control into C2C12 cells. BRE driven luciferase activity was measured and error bars represent deviation of the mean of duplicate measurements. […] Following cell extraction RNA was reverse transcribed into cDNA. The mRNA amount of Id1 was analyzed using Id1 specific primers including the control of applied cDNA by PCR using β-actin specific primers. The result is derived from a representative experiment. (F) As in (A and B), except that reporters were co-transfected with cGKIα and MYC-TFII-I into C2C12 cells. […] Lysates were pooled and immunoblotted for expression of cGKIα and TFII-I. (G) As in (E) except that mRNA amount of cGKI was analyzed using cGKI specific primers. The result is derived from an exemplary experiment. Results were quantified using ImageJ. cGKI mRNA expression was normalized relative to β-actin. […] Fold changes in BRE reporter activities were normalized to the non-treated empty vector control (mean±SD). […] The PDGF- or serum-induced proliferation was measured.\nC2C12 cells were transfected with pBRE4-luc and pRL-TK and indicated constructs. […] Luciferase activity was measured according to manufacturer's instructions using the Dual-Luciferase® Reporter Assay System (Promega) and a FB12 or Mithras LB 940 luminometer (Berthold). Expression control was examined by immunoblotting."}, "[3]": {"tested_on": "VASP", "experiment": "Endogenous VASP phosphorylation in C2C12 cells (immunoblot)", "format": "cell-based, mouse", "conditions": "1 μmol/l 8-Br-cGMP", "method": "Endogenous VASP phosphorylation in C2C12 cells was monitored in response to 1 μmol/l and 100 μmol/l 8-Br-cGMP stimulation. Lysates were analyzed using immunoblot α-pVASP and α-β-actin."}, "[4]": {"tested_on": "cGKI", "experiment": "Immunofluorescence microscopy of cGKI localization in C2C12 cells", "format": "cell-based, mouse", "conditions": "stimulation for 30 min", "quoted_text": "(C) Immunofluorescence staining of cGKI in C2C12 cells after stimulation with BMP-2 or 8-Br-cGMP. DNA was stained using Hoechst dye.\nAnalysis was done with 63-fold magnification at a Leica DMR (Leica) confocal microscope. To examine the protein localization C2C12 cells or transfected 293T cells were starved for 3 hrs and either stimulated with 10 or 20 nmol/l BMP-2 and/or 1 mmol/18-Br-cGMP for 30 min or for 5 to 60 min or left untreated. Indirect immunofluorescence was performed as described in (Bengtsson and Wilson, 2006). Cells were analyzed using fluorescence microscopy (63-fold magnification, Axiovert 200M, Zeiss)."}, "[5]": {"molecular_target": "T1, GST-BRII-tail (methionine 501 to leucine 1038) (UniProt Q13873)", "T1 sequence": "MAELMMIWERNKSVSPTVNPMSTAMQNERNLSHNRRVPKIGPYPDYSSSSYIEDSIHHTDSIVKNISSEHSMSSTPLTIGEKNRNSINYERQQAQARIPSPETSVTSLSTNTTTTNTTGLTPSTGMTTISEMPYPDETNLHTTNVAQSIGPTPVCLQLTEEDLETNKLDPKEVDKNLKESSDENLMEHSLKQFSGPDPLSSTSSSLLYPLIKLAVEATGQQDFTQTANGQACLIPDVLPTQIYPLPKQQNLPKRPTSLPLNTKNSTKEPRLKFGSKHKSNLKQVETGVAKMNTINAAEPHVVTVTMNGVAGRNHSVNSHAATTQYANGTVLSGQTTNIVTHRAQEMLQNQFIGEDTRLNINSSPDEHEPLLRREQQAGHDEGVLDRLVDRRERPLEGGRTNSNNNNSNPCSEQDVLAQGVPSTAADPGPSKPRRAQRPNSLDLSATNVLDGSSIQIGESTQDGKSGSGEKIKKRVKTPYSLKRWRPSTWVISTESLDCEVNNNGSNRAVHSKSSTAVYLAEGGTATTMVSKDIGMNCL"}, "[6]": {"tested_on": "Smad1/5/8", "experiment": "Smad phosphorylation assay in C2C12 cells", "format": "cell-based, mouse", "conditions": "without ligand, sh-cGKI versus sh-control", "source_text": "(§1) Whole cellular extracts were subjected to immunoblot using α-pSmad1/5/8 antibody. α-cGKIβ and α-β-actin immunoblotting was used as expression and loading control. To monitor the activity of cGKIβ the membrane was re-probed with α-pVASP antibody. Results were quantified using ImageJ and Smad1 C-terminal phosphorylation was normalized relative to β-actin. […] (C) Efficiency of cGKI knock down using a specific short hairpin-RNA (sh-cGKI) compared to a control (sh-control) was validated in C2C12 cells via immunoblot using α-cGKI antibody. Applied protein amount was controlled by α-β-tubulin antibody. (D) C2C12 cells were transfected with sh-cGKI and sh-control and subjected as in (A) to Smad phosphorylation assay. Smad1/5/8 phosphorylation and protein loading was monitored with α-pSmad1/5/8 and α-β-actin antibodies. Results were quantified using […]) and Smad1/5 C-terminal phosphorylation was normalized relative to β-actin.\n(§2) Cell lysis and immunoblotting was performed as described in (Hartung et al., 2006)."}, "[7]": {"tested_on": "HA-BRII-LF Q657ins16", "experiment": "BRE reporter assay with BRII PAH mutant in C2C12 cells", "format": "cell-based, mouse", "conditions": "C2C12 cells overexpressing cGKI and PAH mutant versus mutant alone", "method": "(§3) Luciferase activity was measured and error bars result from the mean of duplicate measurements. […] Expression of cGKIα/β was controlled by immunoblot using α-cGKI antibody. (C) As in (A and B) except that reporters were co-transfected with sh-cGKI, sh-cGKI mix and sh-control into C2C12 cells. BRE driven luciferase activity was measured and error bars represent deviation of the mean of duplicate measurements. […] Luciferase activities are represented as mean of each value and standard deviations result from duplicate measurements. […] Following cell extraction RNA was reverse transcribed into cDNA. The mRNA amount of Id1 was analyzed using Id1 specific primers including the control of applied cDNA by PCR using β-actin specific primers. The result is derived from a representative experiment. (F) As in (A and B), except that reporters were co-transfected with cGKIα and MYC-TFII-I into C2C12 cells. BRE driven luciferase activity was measured, standard deviations result from duplicate measurements. […] Lysates were pooled and immunoblotted for expression of cGKIα and TFII-I. (G) As in (E) except that mRNA amount of cGKI was analyzed using cGKI specific primers. The result is derived from an exemplary experiment. Results were quantified using ImageJ. cGKI mRNA expression was normalized relative to β-actin. […] The PDGF- or serum-induced proliferation was measured. […]"}, "[8]": {"tested_on": "human aortic smooth muscle cells", "experiment": "PDGF- or serum-induced proliferation of human aortic smooth muscle cells expressing BMPRII mutant", "format": "cell-based", "conditions": "cells transfected with MYC-BMPRII-Q567ins16 with cGKI coexpression, 24 h", "method": "as §3"}, "[9]": {"tested_on": "Smad1", "experiment": "Smad phosphorylation assay in transfected 293T cells", "format": "cell-based", "conditions": "293T cells co-expressing Smad1, non-stimulated and BMP-2/8-Br-cGMP co-stimulated", "source_text": "as §1, §2"}}, "data": [{"molecule": "Nc1nc2c(nc(Br)n2[C@@H]2O[C@@H]3COP(=O)(O)O[C@H]3[C@H]2O)c(=O)[nH]1", "note": "[8-Br-cGMP]", "values": [{"measurement": "effect on binding of Smad1 and cGKI to the Id1 promoter", "setting": "[1]", "result": "did not affect"}, {"measurement": "BRE reporter gene activity upon stimulation", "setting": "[2]; C2C12 cells, endogenous cGKI, 1 nmol/l BMP-2 and/or 1 μmol/l or 100 μmol/l 8-Br-cGMP, 24 hrs", "result": "did not affect"}, {"measurement": "cGKI-mediated VASP phosphorylation", "setting": "[3]", "result": "weak cGKI-mediated VASP phosphorylation"}, {"measurement": "nuclear translocation of endogenous cGKI", "setting": "[4]", "result": "redistribution of cGKI to the nucleus"}]}, {"molecule": "recombinant cGKIα (Promega)", "values": [{"measurement": "in vitro phosphorylation (γ-32P-ATP, autoradiography), cGKIα activated with 8-Br-cGMP", "setting": "[5]", "result": "BRII-tail was phoshorylated by activated cGKlα"}]}, {"molecule": "sh-cGKI: shRNA construct specific for mouse cGKI, SEQ ID NO 3 (CACCGGGACGATGTTTCTAACAAACGAATTTGTTAGAAACATCGTCC; listed as Homo sapiens)", "values": [{"measurement": "BRE reporter gene response upon ligand stimulation compared to control cells", "setting": "[2]; C2C12 cells transfected with sh-cGKI versus sh-control, BMP-2 stimulated", "result": "less than 50%"}, {"measurement": "endogenous Smad1/5/8 phosphorylation", "setting": "[6]", "result": "reduced"}]}, {"molecule": "B1", "values": [{"measurement": "BRE reporter activity upon overexpression", "setting": "[2]; transfected C2C12 cells, in the absence of BMP-2", "result": "increased"}, {"measurement": "BRE activity in cells expressing the PAH mutant BRII", "setting": "[7]", "result": "rescues defective BMP signaling"}, {"measurement": "PDGF- or serum-induced proliferation", "setting": "[8]", "result": "downregulated"}]}, {"molecule": "B2", "values": [{"measurement": "C-terminal Smad1 phosphorylation", "setting": "[9]", "result": "resulted in phosphorylation of Smad1"}]}]}
